Results on 1 compound are retold here after PMC6930469, “Tetrandrine Interaction with ABCB1 Reverses Multidrug Resistance in Cancer Cells Through Competition with Anti-Cancer Drugs Followed by Downregulation of ABCB1 Expression” (Molecules, 2019).

The assay concerns the target ABCB1 (P-glycoprotein) (Homo sapiens, UniProt P08183). The experiment in a line: Vanadate-sensitive ABCB1 ATPase stimulation in cell membranes (PREDEASY kit); also [3H]-paclitaxel accumulation/efflux in KB-C2 cells. In kind it is biochemical.

For orientation: EC50 means the concentration that produces a half-maximal response. High values mean lower potency in that assay, low ones higher potency in that assay.

ABCB1 (P-glycoprotein), sequence (P08183 whole entry): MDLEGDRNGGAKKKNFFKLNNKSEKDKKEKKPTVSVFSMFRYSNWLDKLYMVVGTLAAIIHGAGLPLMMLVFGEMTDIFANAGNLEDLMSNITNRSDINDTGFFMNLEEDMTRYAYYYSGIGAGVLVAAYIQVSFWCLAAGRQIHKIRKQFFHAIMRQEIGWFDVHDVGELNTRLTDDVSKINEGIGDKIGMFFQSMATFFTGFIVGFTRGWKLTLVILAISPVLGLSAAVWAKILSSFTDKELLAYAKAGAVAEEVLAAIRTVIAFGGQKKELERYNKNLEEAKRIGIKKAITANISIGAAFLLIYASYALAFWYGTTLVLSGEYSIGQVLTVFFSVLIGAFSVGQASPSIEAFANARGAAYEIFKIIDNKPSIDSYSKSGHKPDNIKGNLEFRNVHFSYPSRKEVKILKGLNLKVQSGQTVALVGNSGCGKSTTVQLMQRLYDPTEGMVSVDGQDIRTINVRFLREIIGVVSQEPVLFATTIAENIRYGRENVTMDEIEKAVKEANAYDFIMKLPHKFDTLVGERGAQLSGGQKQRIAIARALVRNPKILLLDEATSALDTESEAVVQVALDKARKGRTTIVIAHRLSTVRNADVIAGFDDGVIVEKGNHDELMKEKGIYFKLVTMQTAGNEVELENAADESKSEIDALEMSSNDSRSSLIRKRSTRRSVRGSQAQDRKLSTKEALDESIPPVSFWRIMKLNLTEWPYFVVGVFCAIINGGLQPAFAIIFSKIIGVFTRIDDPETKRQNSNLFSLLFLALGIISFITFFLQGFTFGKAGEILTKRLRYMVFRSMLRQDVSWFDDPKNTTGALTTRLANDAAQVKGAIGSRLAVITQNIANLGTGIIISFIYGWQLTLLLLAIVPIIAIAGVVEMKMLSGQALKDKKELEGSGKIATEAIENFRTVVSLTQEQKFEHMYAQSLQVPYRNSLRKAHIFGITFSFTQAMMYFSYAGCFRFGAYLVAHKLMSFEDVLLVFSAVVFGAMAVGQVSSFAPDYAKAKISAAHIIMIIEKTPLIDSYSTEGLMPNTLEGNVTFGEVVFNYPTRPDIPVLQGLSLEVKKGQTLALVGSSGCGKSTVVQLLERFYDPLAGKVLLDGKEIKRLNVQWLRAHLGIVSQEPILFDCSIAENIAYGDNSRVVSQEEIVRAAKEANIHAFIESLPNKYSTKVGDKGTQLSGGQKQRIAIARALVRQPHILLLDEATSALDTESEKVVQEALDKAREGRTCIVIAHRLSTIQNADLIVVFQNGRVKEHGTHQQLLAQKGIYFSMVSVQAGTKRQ

For `COc1ccc2cc1Oc1ccc(cc1)C[C@H]1c3cc(c(OC)cc3CCN1C)Oc1c(OC)c(OC)cc3c1[C@H](C2)N(C)CC3` [tetrandrine], the EC50 is 0.47 µM.
